According to paper PMC8217813, “Bridging Computational Vaccinology and Vaccine Development Through Systematic Identification, Characterization, and Downselection of Conserved and Variable Circumsporozoite Protein CD4 T Cell Epitopes From Diverse Plasmodium falciparum Strains” (Frontiers in Immunology, 2021):
Peptide text beside a SMILES is read from it.

Tests used:
HLA-DRB1*1101 = target: T1, HLA-DRB1*1101 (Homo sapiens, UniProt P01903+P01911, A100R/A169T/A87E/I96F/K41T/L162R/M171V/P40S/Q125H/Q178H/Q39Y/Q99D/R42S/S66Y/T262R/V115G/W38E); assay: In vitro class II HLA binding competition assay; settings: competition with fluorescent-labeled reference peptide, class II HLA monomers, 24-hours, test peptide 100,000 nM to 100 nM, time-resolved fluorescence
T1 construct: purchased
Description: (§1) EpiVax conducted in vitro quantification of peptide-HLA binding affinity utilizing a competition assay format per the methodology described in ([35]). Briefly, a fluorescent-labeled, high-binding reference peptide and titrating concentrations of test peptide were incubated in a 96-well plate format with limiting concentrations of class II HLA monomers in aqueous buffer for 24-hours. Post incubation, the mixtures were moved to a 96-well plate coated with anti-HLA-DR antibody to capture HLA-peptide complexes. Time-resolved fluorescence measurement of the bound labeled reference peptide complex present in each mixture were detected with a europium-linked probe via fluorescent spectrophotometry using a SpectraMax M5 system. HLA binding affinity of each test peptide was expressed as the percent inhibition of reference peptide binding. Percent inhibition values (across the test peptide titration range) were used to calculate the half maximal inhibitory concentration (IC50) of each test peptide. For these studies, test peptides were assessed using a range of final concentrations from 100,000 nM to 100 nM and all peptides were reconstituted in dimethyl sulfoxide (DMSO).

HLA-DRB1*0401 = target: T2, HLA-DRB1*0401 (Homo sapiens, UniProt P01903+P01911, A100K/A169T/F76Y/I96L/K127E/L162R/M171V/N62H/P40V/Q125Y/R42H/S133A/S149N/S66Y/V115G/V209L/W38E); assay: In vitro class II HLA binding competition assay; settings: competition with fluorescent-labeled reference peptide, class II HLA monomers, 24-hours, test peptide 100,000 nM to 100 nM, time-resolved fluorescence; read-out: IC50, DRB1*0401
T2 construct: purchased
Description: as §1

HLA-DRB1*1301 = HLA-DRB1*1301 (Homo sapiens, UniProt P01903+P01911, A100E/A169T/K41T/L162R/M171V/P40S/Q125H/Q178H/Q39Y/Q99D/R42S/S66N/T262R/W38E/Y61H); assay: In vitro class II HLA binding competition assay; settings: competition with fluorescent-labeled reference peptide, class II HLA monomers, 24-hours, test peptide 100,000 nM to 100 nM, time-resolved fluorescence
Description: as §1

HLA-DRB1*0801 = HLA-DRB1*0801 (Homo sapiens, UniProt P01903+P01911, A100R/A103L/A169T/D86S/F76Y/H45Y/I96F/K41T/L162R/M171V/P40S/Q125H/Q178H/Q39Y/Q99D/R218S/R42G/S66Y/V115G/W38E); assay: In vitro class II HLA binding competition assay; settings: competition with fluorescent-labeled reference peptide, class II HLA monomers, 24-hours, test peptide 100,000 nM to 100 nM, time-resolved fluorescence
Description: as §1

[1] = test system: CD4 T cells co-cultured with autologous DCs from PBMCs; format: cell-based, human; settings: positive = Stimulation Index ≥1.5-fold above baseline, 5 µg/mL peptide

Compound: CC(=O)N[C@@H](CCCCN)C(=O)N[C@@H](CCC(N)=O)C(=O)N[C@@H](CCC(=O)O)C(=O)N[C@@H](CC(N)=O)C(=O)N[C@@H](Cc1c[nH]c2ccccc12)C(=O)N[C@@H](Cc1ccc(O)cc1)C(=O)N[C@@H](CO)C(=O)N[C@@H](CC(C)C)C(=O)N[C@@H](CCCCN)C(=O)N[C@@H](CCCCN)C(=O)N[C@@H](CC(N)=O)C(=O)N[C@@H](CO)C(=O)N[C@@H](CCCNC(=N)N)C(=O)N[C@@H](CO)C(=O)N[C@@H](CC(C)C)C(=O)NCC(=O)N[C@@H](CCC(=O)O)C(=O)N[C@@H](CC(N)=O)C(=O)N[C@@H](CC(=O)O)C(N)=O [Cluster C2] (Ac-KQENWYSLKKNSRSLGEND-NH2)
- IC50 (HLA-DRB1*1101): 395 nM
- IC50 (HLA-DRB1*0401): 10800 nM
- IC50 (HLA-DRB1*1301): 37 nM
- IC50 (HLA-DRB1*0801): 108 nM
- Percentage of donors demonstrating IFN-γ responses, DR1 ([1]; DR1 donors N=5, ICCS after 14-day co-culture): 20%
- Percentage of donors demonstrating IL-2 responses, DR1 ([1]; DR1 donors N=5, ICCS): 0%
- Percentage of donors demonstrating IL-4 responses, DR1 ([1]; DR1 donors N=5, ICCS): 40%
- Percentage of donors demonstrating IL-10 responses, DR1 ([1]; DR1 donors N=5, ICCS): 20%
- Percentage of donors demonstrating TNF-α responses, DR1 ([1]; DR1 donors N=5, ICCS): 0%
- Percentage of donors demonstrating IFN-γ responses, DR3 ([1]; DR3 donors N=6, ICCS after 14-day co-culture): 33%
- Percentage of donors demonstrating IL-2 responses, DR3 ([1]; DR3 donors N=6, ICCS): 0%
- Percentage of donors demonstrating IL-4 responses, DR3 ([1]; DR3 donors N=6, ICCS): 0%
- Percentage of donors demonstrating IL-10 responses, DR3 ([1]; DR3 donors N=6, ICCS): 50%
- Percentage of donors demonstrating TNF-α responses, DR3 ([1]; DR3 donors N=6, ICCS): 0%
- Percentage of donors demonstrating IFN-γ responses, DR4 ([1]; DR4 donors N=10, ICCS after 14-day co-culture): 0%
- Percentage of donors demonstrating IL-2 responses, DR4 ([1]; DR4 donors N=10, ICCS): 0%
- Percentage of donors demonstrating IL-4 responses, DR4 ([1]; DR4 donors N=10, ICCS): 10%
- Percentage of donors demonstrating IL-10 responses, DR4 ([1]; DR4 donors N=10, ICCS): 10%
- Percentage of donors demonstrating TNF-α responses, DR4 ([1]; DR4 donors N=10, ICCS): 0%
- Percentage of donors demonstrating IFN-γ responses, DR7 ([1]; DR7 donors N=4, ICCS after 14-day co-culture): 0%
- Percentage of donors demonstrating IL-2 responses, DR7 ([1]; DR7 donors N=4, ICCS): 0%
- Percentage of donors demonstrating IL-4 responses, DR7 ([1]; DR7 donors N=4, ICCS): 25%
- Percentage of donors demonstrating IL-10 responses, DR7 ([1]; DR7 donors N=4, ICCS): 50%
- Percentage of donors demonstrating TNF-α responses, DR7 ([1]; DR7 donors N=4, ICCS): 0%
- Percentage of donors demonstrating IFN-γ responses, DR8 ([1]; DR8 donors N=4, ICCS after 14-day co-culture): 0%
- Percentage of donors demonstrating IL-2 responses, DR8 ([1]; DR8 donors N=4, ICCS): 0%
- Percentage of donors demonstrating IL-4 responses, DR8 ([1]; DR8 donors N=4, ICCS): 0%
- Percentage of donors demonstrating IL-10 responses, DR8 ([1]; DR8 donors N=4, ICCS): 25%
- Percentage of donors demonstrating TNF-α responses, DR8 ([1]; DR8 donors N=4, ICCS): 0%
- Percentage of donors demonstrating IFN-γ responses, DR9 ([1]; DR9 donors N=4, ICCS after 14-day co-culture): 25%
- Percentage of donors demonstrating IL-2 responses, DR9 ([1]; DR9 donors N=4, ICCS): 0%
- Percentage of donors demonstrating IL-4 responses, DR9 ([1]; DR9 donors N=4, ICCS): 25%
- Percentage of donors demonstrating IL-10 responses, DR9 ([1]; DR9 donors N=4, ICCS): 25%
- Percentage of donors demonstrating TNF-α responses, DR9 ([1]; DR9 donors N=4, ICCS): 0%
- Percentage of donors demonstrating IFN-γ responses, DR11 ([1]; DR11 donors N=4, ICCS after 14-day co-culture): 0%
- Percentage of donors demonstrating IL-2 responses, DR11 ([1]; DR11 donors N=4, ICCS): 0%
- Percentage of donors demonstrating IL-4 responses, DR11 ([1]; DR11 donors N=4, ICCS): 0%
- Percentage of donors demonstrating IL-10 responses, DR11 ([1]; DR11 donors N=4, ICCS): 0%
- Percentage of donors demonstrating TNF-α responses, DR11 ([1]; DR11 donors N=4, ICCS): 0%
- Percentage of donors demonstrating IFN-γ responses, DR13 ([1]; DR13 donors N=7, ICCS after 14-day co-culture): 0%
- Percentage of donors demonstrating IL-2 responses, DR13 ([1]; DR13 donors N=7, ICCS): 0%
- Percentage of donors demonstrating IL-4 responses, DR13 ([1]; DR13 donors N=7, ICCS): 0%
- Percentage of donors demonstrating IL-10 responses, DR13 ([1]; DR13 donors N=7, ICCS): 29%
- Percentage of donors demonstrating TNF-α responses, DR13 ([1]; DR13 donors N=7, ICCS): 0%
- Percentage of donors demonstrating IFN-γ responses, DR15 ([1]; DR15 donors N=7, ICCS after 14-day co-culture): 29%
- Percentage of donors demonstrating IL-2 responses, DR15 ([1]; DR15 donors N=7, ICCS): 0%
- Percentage of donors demonstrating IL-4 responses, DR15 ([1]; DR15 donors N=7, ICCS): 0%
- Percentage of donors demonstrating IL-10 responses, DR15 ([1]; DR15 donors N=7, ICCS): 14%
- Percentage of donors demonstrating TNF-α responses, DR15 ([1]; DR15 donors N=7, ICCS): 0%
